For two molecules, IC50, AC50 and EC50 results are on record in ChEMBL document CHEMBL1201862, “PubChem BioAssay data set” (2004).

The structures appear in SMILES notation. Active and inactive are the calls of the source. Bounds are passed on as bounds.

Assay [1] concerns the target Transitional endoplasmic reticulum ATPase (Homo sapiens, UniProt P55072). As to the kind of experiment: p97 ATPase inhibitors, dose response, biochemical (AID 1534).
Assay [2] concerns HeLa. As to the kind of experiment: HeLa cell cytotoxicity, dose response, cytotoxicity control, 24 h, cherry-picked samples (AID 504726).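 Further: potency for cytotoxicity as loss of luminescence signal.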 Format: functional, cell-based. To be noted: Homo sapiens.
Assay [3] can be described thus: A cytotoxicity screen of small molecule inhibitors of the PhoP region in Salmonella typhi identified in the primary screen. [Related pubchem assays: 1850, 1864, 1985 ]. Format: functional.
Assay [4] has as its system Salmon testes DNA. As to the kind of experiment: DNA intercalators displacing acridine orange, dose response, artefact control for KSHV LANA DNA-binding inhibitor project, biochemical, fluorescence polarization, cherry-picked samples, set 2 (AID 504727). Also on record: species or system Salmonidae. For orientation: In fluorescence polarisation assays a small probe gives low polarisation when free and higher when bound to something large.

For assay [5], the target named is T1, Histone-lysine N-methyltransferase NSD2 (Homo sapiens, UniProt O96028).
T1 sequence (O96028 whole entry): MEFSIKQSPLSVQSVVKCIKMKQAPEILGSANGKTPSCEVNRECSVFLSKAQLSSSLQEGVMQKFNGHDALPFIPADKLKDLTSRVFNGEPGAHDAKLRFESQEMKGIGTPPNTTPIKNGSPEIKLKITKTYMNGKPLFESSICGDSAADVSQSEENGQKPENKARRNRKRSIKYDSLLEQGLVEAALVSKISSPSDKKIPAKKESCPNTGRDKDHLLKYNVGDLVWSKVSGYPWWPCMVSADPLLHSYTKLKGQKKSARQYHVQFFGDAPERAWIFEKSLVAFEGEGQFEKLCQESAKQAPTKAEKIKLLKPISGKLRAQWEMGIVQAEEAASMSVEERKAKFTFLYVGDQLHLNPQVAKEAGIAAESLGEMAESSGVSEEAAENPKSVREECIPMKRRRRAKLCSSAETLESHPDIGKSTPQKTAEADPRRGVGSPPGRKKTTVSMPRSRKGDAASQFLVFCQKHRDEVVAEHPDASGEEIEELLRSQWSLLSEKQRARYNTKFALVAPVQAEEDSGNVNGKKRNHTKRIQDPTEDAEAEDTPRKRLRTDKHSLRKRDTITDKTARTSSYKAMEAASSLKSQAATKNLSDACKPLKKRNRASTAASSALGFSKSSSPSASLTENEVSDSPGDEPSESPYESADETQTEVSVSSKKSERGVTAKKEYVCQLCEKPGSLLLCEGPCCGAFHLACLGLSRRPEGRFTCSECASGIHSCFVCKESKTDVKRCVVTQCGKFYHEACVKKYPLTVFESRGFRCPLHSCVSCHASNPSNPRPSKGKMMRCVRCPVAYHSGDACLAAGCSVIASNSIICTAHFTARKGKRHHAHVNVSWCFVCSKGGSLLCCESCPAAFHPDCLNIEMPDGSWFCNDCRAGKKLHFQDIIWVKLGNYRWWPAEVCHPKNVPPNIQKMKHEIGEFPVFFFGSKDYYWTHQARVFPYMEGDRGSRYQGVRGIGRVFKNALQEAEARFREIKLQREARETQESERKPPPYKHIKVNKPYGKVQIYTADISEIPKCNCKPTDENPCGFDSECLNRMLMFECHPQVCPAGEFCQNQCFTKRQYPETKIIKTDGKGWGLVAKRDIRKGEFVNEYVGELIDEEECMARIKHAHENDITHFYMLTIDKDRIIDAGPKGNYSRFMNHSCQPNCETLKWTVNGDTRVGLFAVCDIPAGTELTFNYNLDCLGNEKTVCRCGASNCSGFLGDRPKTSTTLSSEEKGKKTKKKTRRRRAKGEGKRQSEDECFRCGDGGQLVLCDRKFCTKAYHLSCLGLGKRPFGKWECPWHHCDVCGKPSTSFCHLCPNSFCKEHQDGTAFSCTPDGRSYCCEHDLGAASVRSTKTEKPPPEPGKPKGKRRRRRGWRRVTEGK
Format: biochemical.

Assay [6] has as its target T2, Protein RecA (Mycobacterium tuberculosis, UniProt P9WHJ3).
T2 sequence (P9WHJ3 whole entry): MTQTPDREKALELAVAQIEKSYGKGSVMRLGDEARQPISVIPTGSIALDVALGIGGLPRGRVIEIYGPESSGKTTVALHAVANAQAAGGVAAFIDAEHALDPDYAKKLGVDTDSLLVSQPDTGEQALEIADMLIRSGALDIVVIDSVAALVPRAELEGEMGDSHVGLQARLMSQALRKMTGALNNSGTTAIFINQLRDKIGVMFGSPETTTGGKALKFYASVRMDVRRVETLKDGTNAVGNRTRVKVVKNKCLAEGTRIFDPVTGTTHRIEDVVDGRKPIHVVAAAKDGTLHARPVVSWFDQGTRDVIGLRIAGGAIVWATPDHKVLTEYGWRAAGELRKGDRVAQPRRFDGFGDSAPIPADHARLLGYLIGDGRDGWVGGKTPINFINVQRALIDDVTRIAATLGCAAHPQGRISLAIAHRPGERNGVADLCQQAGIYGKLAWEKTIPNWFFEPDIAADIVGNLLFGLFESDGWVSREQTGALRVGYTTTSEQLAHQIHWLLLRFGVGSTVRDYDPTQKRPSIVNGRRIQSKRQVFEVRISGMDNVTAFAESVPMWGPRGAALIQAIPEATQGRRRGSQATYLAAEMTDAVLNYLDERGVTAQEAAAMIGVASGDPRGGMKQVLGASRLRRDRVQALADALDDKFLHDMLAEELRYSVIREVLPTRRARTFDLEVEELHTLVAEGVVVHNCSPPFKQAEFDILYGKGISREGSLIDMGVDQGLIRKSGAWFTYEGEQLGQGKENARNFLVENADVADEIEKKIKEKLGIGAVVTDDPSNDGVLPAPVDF
As to the kind of experiment: Fluorescence Cell-Free Homogeneous Dose Retest to Identify Inhibitors of RecA-Intein Splicing Activity. [Related pubchem assays (depositor defined):AID2097, AID2223, AID489010, AID492950]. Format: functional.

Assay [7] deals with Transitional endoplasmic reticulum ATPase (Homo sapiens, UniProt P55072, C522A). Nature of the assay: C522A mutant p97 ATPase inhibitors, dose response, counter-screen for p97 inhibitor project, biochemical, luminescence (AID 1544). On the technique in general: A counterscreen serves to expose hits that act by an unwanted route or on another target.
Transitional endoplasmic reticulum ATPase (Homo sapiens, UniProt P55072, C522A), sequence (P55072 2-806 C522A limits assumed): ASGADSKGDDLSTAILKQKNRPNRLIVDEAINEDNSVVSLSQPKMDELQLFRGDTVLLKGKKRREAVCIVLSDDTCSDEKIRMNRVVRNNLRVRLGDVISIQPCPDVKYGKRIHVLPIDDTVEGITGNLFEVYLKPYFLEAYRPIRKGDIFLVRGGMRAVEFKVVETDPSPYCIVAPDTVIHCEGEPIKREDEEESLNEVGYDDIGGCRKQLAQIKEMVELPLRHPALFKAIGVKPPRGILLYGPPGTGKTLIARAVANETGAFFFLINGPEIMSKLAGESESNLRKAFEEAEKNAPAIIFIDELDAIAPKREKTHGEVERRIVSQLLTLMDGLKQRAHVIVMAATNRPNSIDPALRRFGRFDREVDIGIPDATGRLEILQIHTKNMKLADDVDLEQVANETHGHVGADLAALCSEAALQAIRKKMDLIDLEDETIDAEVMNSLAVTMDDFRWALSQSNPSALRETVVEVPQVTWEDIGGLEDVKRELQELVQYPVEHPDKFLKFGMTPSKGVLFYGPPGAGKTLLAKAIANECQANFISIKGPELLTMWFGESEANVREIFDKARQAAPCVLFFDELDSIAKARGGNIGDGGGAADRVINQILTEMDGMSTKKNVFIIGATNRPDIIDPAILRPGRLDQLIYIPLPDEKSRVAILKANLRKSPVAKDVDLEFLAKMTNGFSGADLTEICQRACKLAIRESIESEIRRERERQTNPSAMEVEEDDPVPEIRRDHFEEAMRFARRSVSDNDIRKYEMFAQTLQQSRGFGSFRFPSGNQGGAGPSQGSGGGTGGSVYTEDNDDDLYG
In assay [8] the target is NS3 (Hepatitis C virus, UniProt A3EZJ3). As to the kind of experiment: PubChem AID 2173. More on the design: species or system Hepacivirus hominis.
NS3, sequence (A3EZJ3 whole entry): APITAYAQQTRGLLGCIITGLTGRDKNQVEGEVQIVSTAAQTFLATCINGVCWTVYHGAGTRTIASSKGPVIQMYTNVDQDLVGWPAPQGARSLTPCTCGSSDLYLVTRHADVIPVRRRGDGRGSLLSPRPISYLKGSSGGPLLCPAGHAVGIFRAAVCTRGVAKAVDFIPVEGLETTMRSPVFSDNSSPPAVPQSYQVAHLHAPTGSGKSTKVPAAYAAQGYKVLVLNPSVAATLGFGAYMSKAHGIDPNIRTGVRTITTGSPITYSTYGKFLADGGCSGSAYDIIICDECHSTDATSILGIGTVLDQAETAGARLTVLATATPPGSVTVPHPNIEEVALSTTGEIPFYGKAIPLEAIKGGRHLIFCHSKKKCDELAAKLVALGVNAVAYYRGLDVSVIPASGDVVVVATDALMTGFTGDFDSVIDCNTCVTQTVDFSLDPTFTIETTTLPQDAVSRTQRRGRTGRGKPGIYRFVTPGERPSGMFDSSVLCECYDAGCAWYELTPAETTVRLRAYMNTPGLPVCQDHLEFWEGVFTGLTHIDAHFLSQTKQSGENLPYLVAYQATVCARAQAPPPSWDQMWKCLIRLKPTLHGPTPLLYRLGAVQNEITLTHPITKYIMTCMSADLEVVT
Assay [9] addresses Protein Rev (Human immunodeficiency virus type 1 group M subtype B (isolate HXB2)(HIV-1), UniProt P04618). Nature of the assay: inhibitors of Rev binding to RRE RNA, dose response, biochemical, fluorescence polarization, HIV-1 (AID 434976). Also on record: species or system Human immunodeficiency virus 1.
Assay [10] addresses Female germline-specific tumor suppressor gld-1 (Caenorhabditis elegans, UniProt Q17339). As to the kind of experiment: inhibitors of GLD-1 binding to TGE RNA, dose response, biochemical, fluorescence polarization, C. elegans (AID 2802).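 Further: fluorescence polarization of labeled TGE RNA bound by purified gld-1 protein.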

Protein Rev, sequence (P04618 whole entry): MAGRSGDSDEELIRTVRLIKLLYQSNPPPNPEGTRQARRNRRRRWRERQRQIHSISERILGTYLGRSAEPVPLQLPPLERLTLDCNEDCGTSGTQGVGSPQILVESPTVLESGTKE
Female germline-specific tumor suppressor gld-1, sequence (Q17339 whole entry): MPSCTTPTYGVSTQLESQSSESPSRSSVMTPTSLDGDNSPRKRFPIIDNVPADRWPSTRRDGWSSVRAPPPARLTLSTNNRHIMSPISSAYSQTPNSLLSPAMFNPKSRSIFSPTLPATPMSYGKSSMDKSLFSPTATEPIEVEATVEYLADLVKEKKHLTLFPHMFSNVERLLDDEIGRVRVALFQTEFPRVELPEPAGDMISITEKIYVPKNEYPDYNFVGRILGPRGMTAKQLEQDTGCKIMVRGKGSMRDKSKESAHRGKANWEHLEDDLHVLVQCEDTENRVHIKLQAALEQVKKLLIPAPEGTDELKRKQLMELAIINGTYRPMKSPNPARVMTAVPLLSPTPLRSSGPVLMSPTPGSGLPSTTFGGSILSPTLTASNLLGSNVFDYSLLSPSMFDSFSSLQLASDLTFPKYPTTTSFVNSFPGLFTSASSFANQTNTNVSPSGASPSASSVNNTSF
Transitional endoplasmic reticulum ATPase (Homo sapiens, UniProt P55072), sequence (P55072 whole entry): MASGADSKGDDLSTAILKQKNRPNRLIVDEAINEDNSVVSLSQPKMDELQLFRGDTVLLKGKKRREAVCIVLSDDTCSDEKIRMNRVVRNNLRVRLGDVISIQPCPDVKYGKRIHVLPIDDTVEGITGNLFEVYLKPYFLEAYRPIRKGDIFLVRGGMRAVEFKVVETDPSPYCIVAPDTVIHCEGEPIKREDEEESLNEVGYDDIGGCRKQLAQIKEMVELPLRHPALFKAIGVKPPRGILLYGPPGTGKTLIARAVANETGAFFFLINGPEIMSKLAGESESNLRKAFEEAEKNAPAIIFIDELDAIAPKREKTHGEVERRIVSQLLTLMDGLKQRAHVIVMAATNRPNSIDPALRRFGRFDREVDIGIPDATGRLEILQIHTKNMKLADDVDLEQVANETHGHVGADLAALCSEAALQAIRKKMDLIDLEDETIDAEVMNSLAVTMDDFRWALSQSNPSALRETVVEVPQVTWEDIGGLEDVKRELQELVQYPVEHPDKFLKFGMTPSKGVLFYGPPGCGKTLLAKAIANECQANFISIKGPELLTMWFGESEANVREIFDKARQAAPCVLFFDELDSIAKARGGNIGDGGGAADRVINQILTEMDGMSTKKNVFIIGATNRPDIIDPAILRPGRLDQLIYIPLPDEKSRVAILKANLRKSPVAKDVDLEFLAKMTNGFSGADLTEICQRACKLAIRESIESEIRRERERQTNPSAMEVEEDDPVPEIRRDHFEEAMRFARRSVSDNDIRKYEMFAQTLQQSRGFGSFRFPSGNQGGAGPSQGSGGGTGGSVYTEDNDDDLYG

A word on the IC50: it is the concentration needed to halve the response being measured. By AC50 is commonly meant the concentration giving half of the maximal activity seen. Usually EC50 stands for the concentration giving half of the maximal effect. `CCCCn1c(NS(=O)(=O)c2ccc(C)cc2)c(S(=O)(=O)c2ccccc2)c2nc3ccccc3nc21`: the 50% inhibitory concentration (IC50) in assay [1] is > 50 µM (not active); in assay [7] it was > 50 µM (not active); in [8], 0.662 µM (active). Moreover, the results for the AC50 in assay [2], in assay [4] and in [5] were 313 µM (active), 43.7 µM (active) and 12.2 µM (active), respectively. Also, the concentration giving a half-maximal response (EC50) in assay [3] was > 50 µM (active); in assay [6] it was > 380 µM (inconclusive).

On to `Nc1cccc2c1C(=O)N(Cc1cccc(Cl)c1)C2=O`, for which the half-maximal inhibitory concentration (IC50) in assay [9] is 17.9 µM (not active); in [10] it was 4.97 µM (active).
